Experimental data as given in patent publication US10203334B2, “Methods and compositions related to nucleic acid binding assays” (Nubad, LLC, priority 2012, dated 2019).

Tests used:
bacterial A-site oligos = details: cited from earlier work
TAR RNA = details: read-out: IC50 for inhibition of Tat peptide binding to the TAR RNA; cited from earlier work
DNA d(G4C4) [1] = test: Displacement of TO-neo (36a) from GC DNA, 96-well; type: binding; details: FIG. 14
Text: The HTS by the displacement of a thiazole-neomycin (TO-neo (36a)) bound from a synthetic DNA sequence eight bases long designed to conform to A-form DNA by the synthetic molecule neomycin-anthraquinone 67 using a 96 well plate format and a fluorescent plate reader was disclosed herein.
The high throughput screening (HTS) has been designed to determine the binding of drugs to the target sequence d(G4C4). The target is predicted to exist predominately in the A-form conformation of DNA. This HTS involves the displacement of a TO-neo (36a) molecule by DNA binding molecules in a 96 well plate format using a fluorescent plate reader. […] The quality of the assay was determined by the calculation of a Z′-factor using equation 1 for the displacement of TO-neo (36a) from the DNA by a neomycin-anthraquinone 67 conjugate. […]
The fluorescence of the probe decrease approximately 60% with the addition of the neomycin-anthraquinone 67, a synthetic molecule predicted to bind in the major groove. However, with the addition of the minor groove binding compound 59, the change in fluorescence is less than 10%. The change in the fluorescence observed upon the addition of the compound 59 is approximately the same as that observed in the DMSO control.

DNA d(G4C4) [2] = test: Displacement of F-neo (42a) from GC DNA, 96-well; type: binding; details: one molar equivalent; FIG. 15
Text: The HTS by the displacement of a fluorescene-neomycin (F-neo (42a)) bound from a synthetic DNA sequence eight bases long designed to conform to A-form DNA by the synthetic molecule neomycin-anthraquinone (67) using a 96 well plate format and a fluorescent plate reader is disclosed.
The high throughput screening (HTS) has been designed to determine the binding of drugs to the target sequence d(G4C4). The target is predicted to exist predominately in the A-form conformation of DNA. This HTS involves the displacement of a fluorescene-neomycin (F-neo (42a)) by DNA binding molecules in a 96 well plate format using a fluorescent plate reader. […] The quality of the assay was determined by the calculation of a Z′-factor using equation 1 for the displacement of F-neo (42a) from the DNA by neomycin-anthraquinone 67. The final assay results were obtained using the average (μn) and standard deviation (σn) from 36 wells of 0.1 μM F-neo (42a)/DNA d(G4C4) as the negative control and from the average (μp) and standard deviation (σp) 36 wells of 0.1 μM F-neo (42a)/DNA d(G4C4) mixed with 0.3 μM neomycin-anthraquinone 67 as the positive control.
Upon binding to the DNA the fluorescence of F-neo (42a) is quenched. […] This increase is not observed with the addition of the minor groove binding compound 59, in which the change in the fluorescence observed is approximately the same as that of the DMSO control.

[3] = system: dimeric form of a parallel quadruplex formed by the Tetrahymena telomere; details: cited from earlier work
[4] = system: E. coli ribosomal A-site oligonucleotide (SEQ ID No. 1); test: 96-well F-neo displacement HTS on ribosomal A-site; type: binding; details: 0.30 mM F-neo, 0.3 mM A-site oligonucleotide, 1.0 mM neomycin
Text: [drawing 24] where FHNeo represents the protonated form of F-neo. F(-)Neo, upon binding to nucleic acids such as DNA or RNA, is destabilized by the nucleic acid backbone negative potential, shifting the equilibrium towards FH, making F-neo a weaker acid, raising the pKa, which is what we observe upon binding to the A-site. For the A-site targeted assay, we calculated the Z' factor (Z=1-3(2.7+2.8)/(414-267)=0.89. […] Provided is a detailed example for the development of a HTS by the displacement of a fluorescene-neomycin (F-neo (42a)) from rRNA A-site oligonucleotide (SEQ ID No. 1) using a 96 well plate format and a fluorescent plate reader. […] This HTS involves the displacement of a fluorescene-neomycin (F-neo (42a)) by potential RNA binding molecules in a 96 well plate format using a fluorescent plate reader. […] F-neo based RNA binding assays have been performed using a fluorescence spectrophotometer with a 96-well plate reader and results recorded in FIG. 4. […] Fo is defined as the baseline fluorescence intensity of the RNA/F-neo complex and F is the intensity with added drug. The difference between the fluorescence intensity baseline of F-neo/A-site complex and complex with added drug (F-Fo) indicates the extent of the competition of drug for the binding site, this allows the relative binding affinities of aminoglycosides to be established. […]

Row | Compound | relative binding affinities with bacterial A-site oligos (bacterial A-site oligos) | IC50 (TAR RNA) [µM] | other results
1 | NC[C@H]1O[C@H](O[C@H]2[C@H](O[C@@H]3O[C@H](CO)[C@@H](O)[C@H]3O)[C@@H](O)[C@H](N)C[C@@H]2N)[C@H](N)[C@@H](O)[C@@H]1O [ribostamycin] | neomycin>paromomycin>ribostamycin |  | 
2 | [H]/N=C(/N)N[C@H]1[C@H](O)[C@@H](O)[C@H](O[C@@H]2O[C@@H](C)[C@](O)(C=O)[C@H]2O[C@@H]2O[C@@H](CO)[C@H](O)[C@@H](O)[C@@H]2NC)[C@@H](N/C(N)=N\[H])[C@@H]1O [streptomycin] |  | 9.5 ± 0.8 | 
3 | NCC1O[C@H](OC2C(O)C(OC3C(O)[C@H](N)CC(N)[C@H]3O[C@H]3OC(CN)[C@@H](O)C(O)C3N)O[C@@H]2CSCCNC(=S)NCCNC(=O)c2ccc3c(c2)C(=O)c2ccccc2C3=O)C(N)C(O)[C@@H]1O (stereo partly drawn) [neomycin-anthraquinone 67, Neomycin-Anthraquinone Conjugate] |  |  | decrease in fluorescence of TO-neo (36a) bound to d(G4C4)2 on addition of compound (DNA d(G4C4) [1]): approximately 60%; change in fluorescence of F-neo (42a) bound to d(G4C4)2 on addition of compound (DNA d(G4C4) [2]): significant increase in the fluorescence
4 | CN(C)CCCNC(=O)c1cc(NC(=O)c2cc(NC(=O)c3nc(NC(=O)c4nc(NC(=O)CCCNC(=O)c5cc(NC(=O)c6cc(NC(=O)c7nc(NC(=O)c8nccn8C)cn7C)cn6C)cn5C)cn4C)cn3C)cn2C)cn1C [compound 59, reference compound] |  |  | decrease in fluorescence of TO-neo (36a) bound to d(G4C4)2 on addition of compound (DNA d(G4C4) [1]): less than 10%; change in fluorescence of F-neo (42a) bound to d(G4C4)2 on addition of compound (DNA d(G4C4) [2]): not displaced
5 | NC[C@@H]1O[C@H](O[C@H]2[C@@H](O)[C@H](O[C@@H]3[C@@H](O)[C@H](N)C[C@H](N)[C@H]3O[C@H]3O[C@H](CO)[C@@H](O)[C@H](O)[C@H]3N)O[C@@H]2CO)[C@H](N)[C@@H](O)[C@@H]1O [paromomycin] | neomycin>paromomycin>ribostamycin |  | 
6 | gentamicin |  | 45 ± 4 | 
7 | neomycin | neomycin>paromomycin>ribostamycin | 0.92 ± 0.09 | affinity [3]: nanomolar affinity; effect of added drug on fluorescence of F-neo/A-site oligonucleotide complex [4]: restored the intensity to F-neo only levels
